Experimental findings from patent publication US20220168329A1, “COMBINATORIAL DRUG TREATMENT OF CANCER” (University of Virginia Patent Foundation, priority 2019, published 2022) are described below.

In assay [1] the test system is xenograft tumors. As to the kind of experiment: γ-H2AX and SDMA levels in extracted tumor tissues (IHC, Western blot). The format is in vivo, mice. As to the method: Cells were washed with cold PBS and lysed in RIPA buffer (Cell Signaling Technology). After centrifugation at 14,000 rpm for 15 minutes at 4° C., the supernatants were collected and the protein concentrations were measured using BCA protein assay reagent (BIO-RAD). Subsequently, equal amounts of proteins were separated in NuPAGE 4-12% Bis-Tris gradient gel (Invitrogen #NP0335) and transferred onto nitrocellulose membranes (Invitrogen #B301002). After blocking with 5% milk, the membranes were then probed at 4° C. overnight with various primary antibodies: anti-γ-H2AX (Cell Signaling), anti-phospho-Chk1 (Ser345) (Cell Signaling), anti-phospho-Chk2 (Thr68) (Cell Signaling), anti-PRMT5 (Abcam), anti-RPA1 (Abcam), anti-phospho-RPA2 (S4/S8) (Bethyl Laboratories), anti-RPA2 (Ab-2) (Calbiochem), cleaved caspase-3 (Cell Signaling), and anti-β-actin (Sigma); washed with TBST (20 mM Tris, 150 mM NaCl, 0.1% polysorbate 20; pH 7.6); and incubated with horseradish peroxidase (HRP)-conjugated secondary antibodies (Promega) at room temperature for 1 hour. Finally, after washing with TBST, the antibody-bound membranes were treated with enhanced chemiluminescent Western blot detection reagents (GE Healthcare) and visualized with an x-ray film (GE Healthcare). We also extracted tumors to analyze their morphology and molecular structure through H&E and IHC for selected markers. […] To assess whether the combination treatment abolished PRMT5 function in vivo, we evaluated the overall levels of the γ-H2AX and the symmetric […] of arginine (SDMA) in WT tumors, PRMT5 KO tumors as well as single-agent and combination-treated WT tumors.

Assay [2] deals with HeLa DR13-9 cell line. As to the kind of experiment: I-SceI reporter assay, homology-directed repair (HDR). The following applies: Gem 250 nM and/or EPZ015666 500 nM, 24 hours. The format is cell-based, Human. As for the experimental part:
(§1) NHEJ and HR assays to examine the repair efficiency of I-SceI inducible-double strand breaks (DSBs) were performed using NHEJ/DsRed293B and HeLa DR13-9 cell lines, respectively, as previously described with slight modifications. Briefly, 3×10^5 cells were plated on 6-well dishes and 2 μg I-SceI expression vector […] was transfected using Lipofectamine2000 (Invitrogen). 24 hours post-transfection, the indicated amount of gemcitabine and/or EPZ015666 was incubated with cells for 24 hours. The DsRed- and GFP-expressing cells were counted in flow cytometric analysis (BD FACS Calibur and CellQuest Pro) by the FL2 and FL1 channels for NHEJ and HR repair efficiency, respectively. […] To this end, we used I-SceI endonuclease-based genetic reporters where relative efficiency of DSB repair by either pathway could be robustly quantified. […] However, exogenous expression of I-SceI leads to a DSB repair and creation of either dsRED+ or GFP+ cells, which can be quantified to assess relative NHEJ or HDR repair efficiencies by quantifying the percentage of dsRED+ or GFP+ cells upon I-SceI expression. […] We then assessed whether PRMT5 inhibitor alone or in combination with Gem results in differential NHEJ activity. […]
(Reporter assays use an easily measured gene product as a stand-in for the process of interest.)

Assay [3] relates to mPanc96 cells. As to the kind of experiment: Comet assay (DNA strand breaks). The assay is classed as cell-based, Human. The conditions noted are these: PRMT5 KO or PRMT5-inhibited cells treated with Gem vs WT and control-treated cells. As for the experimental part:
The comet assay measures DNA damage in individual cells. It was performed according to the instructions of the OxiSelect Comet Assay Kit (Cell Biolabs). Briefly, microscope slides were first covered with a normal melting point agarose to create a base layer. Then, 1-2×10^5 cells were embedded into 75 μL of low-melting-point agarose at 37° C. and the gel was cast over the first agarose layer. Then slides were immersed into a lysis buffer and kept for 1 hour at 4° C. After cell lysis, the slides were electrophoresed in alkaline electrophoresis buffer (300 mM NaOH, 1 mM EDTA, pH 13). The slides were then stained with Vista Green DNA dye. Comet tails were measured using Image J.

Assay [4] deals with WT and PRMT5 KO mPanc96 tumors. As to the kind of experiment: Xenograft of WT and PRMT5 KO mPanc96 cells treated with Gem. The assay is classed as in vivo, nude mice. The conditions noted are these: Gem 50 mg/kg or 100 mg/kg i.p.
Procedure: To develop xenograft tumors, Control sgRNA infected WT cells and PRMT5-KO cells were subcutaneously injected into the dorsal flanks of 8 week-old nude mice, which were obtained from the Jackson Laboratory (Bar Harbor, Me., USA). When the tumors were visible (approximately 30 mm^3 in volume), the mice received respective gemcitabine treatments via intraperitoneal (i.p.) injection. After weekly monitoring, time to appearance of the tumor was recorded, and the tumor volume was measured by caliper. The tumor volume was calculated as follows: volume=longest tumor diameter×(shortest tumor diameter) 2/2. After 35 days of treatment, the mice were euthanized by CO2 inhalation, and the tumor tissues were collected for further analyses. […] Initially, we tested whether tumors formed by WT and PRMT5 KO cells were differentially sensitive to Gem treatment. To be able to better compare the tumors from these two genetic backgrounds, we injected 5×10^5 WT mPanc96 cells in the left flank and the same number of the PRMT5 KO cells in the right flank of the same mouse. This strategy enabled us to compare the two tumors grown in the same mouse. After one week of tumor formation, the mice were randomly divided into three groups where one received control, and the other two received two separate Gem doses (50 mg/kg or 100 mg/kg).
For assay [5], the system named is WT and PRMT5 knockout (KO) PDAC cells (mPanc96, PANC-1). As to the kind of experiment: MTT cell viability assay, WT vs PRMT5 KO clones. The format is cell-based. The following applies: Homo sapiens. As for the experimental part: PDX366, mPanc96, and PANC-1 cells were seeded in a flat-bottom 96-well plate (Corning) in triplicate at a density of 1-2×10^3 cells per well. The following day, cells were treated with gemcitabine (GEMZAR; Eli Lilly) and EPZ015666 (GSK3235025; SelleckChem) or EPZ015938 (GSK3326595; ChemieTek) for 4-5 days prior to MTT (3-(4,5-dimethylthiazolyl)-2,5-diphenyltetrazolium bromide) to determine effects of drugs on cell viability. Culture media were replaced with fresh RPMI, which had 10% FBS and 10% MTT (5 mg/mL) and incubated for 4 hours in a humidified (37° C., 5% CO2) incubator. 100 μL MTT solvent (10% SDS in 0.01 M HCl) was added to each well, and cells were incubated overnight. The absorbance was read at 595 nm.
To better study the role of PRMT5 in the cellular response to Gem, we generated multiple single KO clones in two additional pancreatic cancer cell lines (mPanc96 and PANC-1) (FIG. 2A). […] However, the clones with even partial PRMT5 depletion were nearly an order of magnitude more sensitive to Gem compared to wild-type (WT) clones (4-5 μM vs. ˜50 μM IC50) as measured by cell viability assay (FIG. 2B).
(In general: Formazan colour is commonly taken as a measure of viable cells.)

For assay [6], the system named is PDAC cells. As to the kind of experiment: Western blot of DNA damage and cell cycle checkpoint markers and RPA2. The format is cell-based, Human. The conditions noted are these: time-course, KO cells compared to WT cells. As for the experimental part: (§2) Cells were washed with cold PBS and lysed in RIPA buffer (Cell Signaling Technology). After centrifugation at 14,000 rpm for 15 minutes at 4° C., the supernatants were collected and the protein concentrations were measured using BCA protein assay reagent (BIO-RAD). Subsequently, equal amounts of proteins were separated in NuPAGE 4-12% Bis-Tris gradient gel (Invitrogen #NP0335) and transferred onto nitrocellulose membranes (Invitrogen #B301002). After blocking with 5% milk, the membranes were then probed at 4° C. overnight with various primary antibodies: anti-γ-H2AX (Cell Signaling), anti-phospho-Chk1 (Ser345) (Cell Signaling), anti-phospho-Chk2 (Thr68) (Cell Signaling), anti-PRMT5 (Abcam), anti-RPA1 (Abcam), anti-phospho-RPA2 (S4/S8) (Bethyl Laboratories), anti-RPA2 (Ab-2) (Calbiochem), cleaved caspase-3 (Cell Signaling), and anti-β-actin (Sigma); washed with TBST (20 mM Tris, 150 mM NaCl, 0.1% polysorbate 20; pH 7.6); and incubated with horseradish peroxidase (HRP)-conjugated secondary antibodies (Promega) at room temperature for 1 hour. Finally, after washing with TBST, the antibody-bound membranes were treated with enhanced chemiluminescent Western blot detection reagents (GE Healthcare) and visualized with an x-ray film (GE Healthcare).

Assay [7] relates to mPanc96 cells. As to the kind of experiment: γ-H2AX immunofluorescence staining. The assay is classed as cell-based, Human. As for the experimental part:
Cells grown on glass coverslips (VWR) were rinsed with PBS, and then fixed in 4% formaldehyde for 15 min. The cells were subsequently treated with 0.2% Triton X-100 in PBS for 10 min. After blocking with 2% BSA in PBS containing 5% FBS at RT for 30 minutes, cells were incubated with an appropriate primary antibody γ-H2AX (Cell Signaling) for 2 hours. Then the cells were washed with PBS and incubated for 1 hour with secondary antibody [Alexa Fluor-488 goat anti-mouse immunoglobulin G (IgG) (H+L) conjugate or anti-rabbit IgG (H+L) conjugate (Invitrogen)]. After washing with PBS, the coverslips were dried, and then reversely covered onto slides (Fisher Scientific) by adding mounting medium with 4′,6-diamidino-2-phenylindole dihydrochloride (DAPI) (Vector Laboratories). A LSM-710 confocal microscope (Zeiss) was used to obtain fluorescence images.

The test system of assay [8] is NHEJ/DsRed293B cell line. As to the kind of experiment: I-SceI reporter assay, NHEJ. The assay is classed as cell-based, Human. The following applies: Gem 250 nM and/or EPZ015666 500 nM, 24 hours. As for the experimental part:
as §1

The subject of assay [9] is mPanc96 and PANC-1 cells. As to the kind of experiment: Crystal violet colony formation assay. The format is cell-based, Human. As for the experimental part:
Pancreatic cancer cells were seeded in a flat-bottom 12-well plate (Corning) at a density of 1-2×10^3 cells per well. The following day, cells were treated with gemcitabine and EPZ015666 or EPZ015938 for two weeks. Culture media were replaced every week with fresh medium in the presence of drugs. Wells were washed with PBS, then stained for 30 min with crystal violet solution (0.4% crystal violet, 10% formaldehyde, 80% methanol). After staining, wells were washed once with PBS and water. The plate was dried out overnight and imaged using a scanner. Colonies were measured and analyzed with ImageJ (National Institutes of Health).

The subject of assay [10] is Pancreatic cancer cells. As to the kind of experiment: BrdU incorporation flow cytometry cell cycle analysis. The assay is classed as cell-based, Human. The conditions noted are these: Gem 250 nM. As to the method: Pancreatic cancer cells were treated with gemcitabine and EPZ015666 or EPZ015938, incorporated with BrdU (Sigma) for 1 hour and then fixed by 70% ethanol. BrdU staining was performed according to the manufacturer's instructions (BD Biosciences, Franklin Lakes, N.J., USA). Briefly, the fixed cells were washed with PBS and then resuspended in 2 N HCl for 20 min to denature the DNA. After washing with 0.1 M Na2B4O7, pH 8.5, to stop acid denaturation, the cells were resuspended and washed with 180 μL 0.5% polysorbate 20 (Sigma) with 1% normal goat serum (NGS) (Dako, Glostrup, Denmark) in PBS. Then, the cells were incubated with Alexa Fluor 647-conjugated anti-BrdU (mAb) (Invitrogen) for 1 hour at room temperature in the dark. After washing with PBS, the cells were resuspended in 2 μg/mL propidium iodide (PI) (Sigma) in PBS plus RNase, incubated at 37° C. for 30 min in the dark, and then analyzed by FACSCalibur flow cytometer (Becton-Dickinson, San Jose, Calif., USA).
Background: Dividing cells build labelled thymidine or BrdU into new DNA.

In assay [11] the test system is WT and PRMT5 KO cells. As to the kind of experiment: Western blot of Caspase-3 cleavage (apoptosis) in WT and PRMT5 KO cells. The assay is classed as cell-based, Human. The following applies: WT vs PRMT5 KO cells, increasing doses (nM). As to the method:
as §2

Assay [12] concerns PRMT5. As to the kind of experiment: Western blot of global SDMA in cells. The format is cell-based, Human. The following applies: increasing concentrations (nM). As to the method:
as §2

SMILES strings stand for the structures.

What is called IC50 is the concentration at which inhibition is half-maximal. High values mean weaker potency, low ones greater potency. Take `Nc1ccn([C@@H]2O[C@H](CO)[C@@H](O)C2(F)F)c(=O)n1` [Gem, 2′,2′-difluoro 2′-deoxycytidine]: in [1] (PRMT5 KO tumors vs WT tumors treated with Gem), the “γ-H2AX staining (IHC) in tumors” value is given as “significantly more γ-H2AX staining”. In addition, the γ-H2AX in tumors result in [1] (Western blot, PRMT5 KO tumors) is listed as “significantly activated”. Also, the HDR activity entry in assay [2] was “significantly inhibits the HDR activity”. Also, the comet tail length entry in [3] is given as “significantly longer comet tail”. Moreover, the tumor volume result in assay [4] (PRMT5 KO tumors) is listed as “most significant reduction of tumor volumes”; in assay [4] (WT tumors), “notable reduction of WT tumors”. The IC50 is 4 to 5 µM in assay [5] (clones with even partial PRMT5 depletion (PRMT5 KO)) and roughly 50 µM in [5] (wild-type (WT) clones). In [6], the “phospho-Chk1, γ-H2AX and phospho-RPA2 activation” value is “sustained and stronger”. In addition, the “time to strong γ-H2AX foci post Gem treatment” value in assay [7] (PRMT5 KO cells, Gem 250 nM) is 4 h. The “time to similar levels of γ-H2AX foci” value in assay [7] (WT cells, same concentration of Gem) is 48 to 72 h. Also, the “γ-H2AX foci formation levels” value in [7] (over 72 hours, PRMT5 KO vs WT cells, Gem treatment) is on record as “significantly higher levels of γ-H2AX”. Further, the NHEJ activity result in assay [8] is “significant increase in NHEJ activity”. The “sensitivity to Gem in longer-term colony formation” value in assay [9] (PRMT5 KO clones compared to WT cells) is “significantly more sensitive”. Further, the cell cycle position entry is “significantly higher number of G2/M cells” in assay [10] (PRMT5 KO cells compared to WT cells); “partial delay in cell cycle with a substantial accumulation of cells in S-phase and partial increases in G2/M cells” in assay [10] (WT cells, EPZ015666 500 nM).

In the case of `CC(=O)N1CCC(Nc2cc(C(=O)NC[C@H](O)CN3CCc4ccccc4C3)ncn2)CC1` [EPZ015938], in [9] (single agent, compared with the other PRMT5 inhibitor), the “growth inhibition activity on colony formation” value is recorded as “substantially more growth inhibition activity”.

With `O=C(NC[C@H](O)CN1CCc2ccccc2C1)c1cc(NC2COC2)ncn1` [EPZ015666], the “overall SDMA levels in tumors” value in assay [1] (Western blot of tumor tissues) is “lower overall levels of SDMA”. Besides, the “apoptosis (caspase-3 cleavage)” value in assay [11] is “significant apoptosis (caspase-3 cleavage) selectively in WT cells but not in PRMT KO cells”. In addition, the HDR activity result in [2] is “significantly inhibits the HDR activity”. For the same compound, in [12], the “global SDMA” value is given as “significantly inhibits global SDMA”. In addition, in assay [8], the NHEJ activity entry was “significant increase in NHEJ activity”.
